Source: patent publication US8772498B2, “Alkylamine-substituted dicyanopyridine and amino acid ester prodrugs thereof” (Bayer Intellectual Property GmbH, priority 2009, dated 2014)
Counter-ions that a name gives are not always drawn.

Tests used:
[1] = system: spontaneously hypertensive rats; experiment: Measurement of blood pressure and heart rate on awake rats (telemetry); assay type: in vivo; conditions: maximum reduction in heart rate, oral administration of 3 mg/kg, awake SH rats
Protocol: B-5. Measurement of Blood Pressure and Heart Rate
Awake spontaneously hypertensive rats (SH-Ratten) carrying an internal transmitter capable of measuring permanently both blood pressure and heart rate (telemetric monitoring of hemodynamic parameters) and sitting in a cage fitted with motion sensors are orally administered test substances in various dosages. Blood pressure and heart rate and changes thereof, and also the movements and the activity of the animals are then recorded and evaluated for 24 hours.

[2] = Determination of the solubility in 5% strength aqueous dextrose solution; assay type: physicochemical; conditions: saline or isotonic, thermodynamic from solid, room temperature, 24 h
Protocol: B-8. Determination of Solubility, Stability and Liberation Behavior a) Determination of the Solubility:
The test substance is suspended in 5% strength aqueous dextrose solution. This suspension is shaken at room temperature for 24 h. After ultracentrifugation at 224 000 g for 30 min, the supernatant is diluted with DMSO and analyzed by HPLC. A two-point calibration plot of the test compound in DMSO is used for quantification.
Agilent 1100 with DAD (G1315A), quat. pump (G1311A), autosampler CTC HTS PAL, degasser (G1322A) and column thermostat (G1316A); column: Phenomenex Gemini C18, 5 μm, 50 mm×2 mm; temperature: 40° C.; eluent A: water/phosphoric acid pH 2; eluent B: acetonitrile; flow rate: 0.7 ml/min; gradient: 0-0.5 min 85% A, 15% B; ramp: 0.5-3 min 10% A, 90% B; 3-3.5 min 10% A, 90% B; ramp: 3.5-4 min 85% A, 15% B; 4-5 min 85% A, 15% B.
Agilent 1100 with DAD (G1315A), quat. pump (G1311A), autosampler CTC HTS PAL, degasser (G1322A) and column thermostat (G1316A); column: VDSoptilab Kromasil 100 C18, 3.5 μm, 60 mm×2.1 mm; temperature: 30° C.; eluent A: water+5 ml perchloric acid/I; eluent B: acetonitrile; flow rate: 0.75 ml/min; gradient: 0-0.5 min 98% A, 2% B; ramp: 0.5-4.5 min 10% A, 90% B; 4.5-6 min 10% A, 90% B; ramp: 6.5-6.7 min 98% A, 2% B; 6.7-7.5 min 98% A, 2% B.

[3] = Stability in buffer at various pH values; assay type: physicochemical
Protocol: b) Stability in Buffer at Various pH Values:
0.3 mg of the test substance is weighed into a 2 ml HPLC vial and 0.5 ml of acetonitrile or acetonitrile/DMSO (9:1) is added. The substance is dissolved by putting the sample vessel in an ultrasonic bath for about 10 seconds. Then 0.5 ml of the respective (buffer) solution is added, and the sample is again treated in the ultrasonic bath.
(Buffer) solutions employed:
pH 4: 1 liter of Millipore water is adjusted to pH 4.0 with 1 N hydrochloric acid;
pH 7.4: 90.0 g of sodium chloride, 13.61 g of potassium dihydrogen phosphate and 83.35 g of 1 N sodium hydroxide solution are made up to 1 liter with water; this solution is then further diluted 1:10 with Millipore water.
5 μl portions of the test solution are analyzed by HPLC for their content of unchanged test substance, and of active substance (A) produced, every hour over a period of 24 hours at 37° C. The percentage areas of the appropriate peaks are used for quantification.
HPLC method for Examples 41 and 44:
(§1) Agilent 1100 with DAD (G1315B), binary pump (G1312A), autosampler (G1329A), column oven (G1316A), thermostat (G1330B); column: Kromasil 100 C18, 250 mm×4 mm, 5 μm; column temperature: 30° C.; mobile phase A: water+5 ml of perchloric acid/liter, eluent B: acetonitrile; gradient: 0 min 90% A→5.0 min 40% A→18.0 min 10% A→19.0 min 10% A→21.0 min 90% A→23.0 min 90% A; flow rate: 2.0 ml/min; UV detection: 288 nm.
HPLC Method for Examples 50 and 59:
as §1, with “125” for “250”, “60% A→7.0 min 60% A→10.0” for “40% A→18.0”, “A→12.0” for “A→19.0”, “A→14.0” for “A→21.0”, “A→16.0” for “A→23.0”, “294” for “288”
HPLC Method for Example 54:
as §1, with “(G1314A),” for “(G1315B),”, “(G1330A);” for “(G1330B);”
The ratios of the peak areas (F) at the respective time points in relation to the peak areas at the starting time are shown in Table 2 for representative exemplary embodiments: […]

[4] = i.v. pharmacokinetics in Wistar rats; assay type: in vivo; conditions: after i.v. administration
Protocol: e) i.v. Pharmacokinetics in Wistar Rats:
(§2) On the day before administration of the substance, a catheter for obtaining blood is implanted in the jugular vein of the experimental animals (male Wistar rats, body weight 200-250 g) under Isofluran® anesthesia.
(§3) On the day of the experiment, a defined dose of the test substance is administered as solution into the tail vein using a Hamilton® glass syringe (bolus administration, duration of administration<10 s). Blood samples (8-12 time points) are taken through the catheter sequentially over the course of 24 h after administration of the substance. Plasma is obtained by centrifuging the samples in heparinized tubes. Acetonitrile is added to a defined plasma volume per time point to precipitate proteins. After centrifugation, test substance and, where appropriate, known cleavage products of the test substance in the supernatant are determined quantitatively using a suitable LC/MS-MS method.
The measured plasma concentrations are used to calculate pharmacokinetic parameters of the test substance and of the active ingredient compound (A) liberated therefrom, such as AUC, Cmax, T1/2 (half-life) and CL (clearance).

[5] = Oral pharmacokinetics in Wistar rats; assay type: in vivo; conditions: after oral administration
Protocol: f) Oral Pharmacokinetics in Wistar Rats:
as §2
as §3, with “stomach by gavage.” for “tail vein using a Hamilton® glass syringe (bolus administration, duration of administration<10 s).”
The measured plasma concentrations are used to calculate pharmacokinetic parameters of the test substance and of the active ingredient compound (A) liberated therefrom, such as AUC, Cmax and T1/2 (half-life).

[6] = Stability in suspension (isopropanol, 7 days); assay type: physicochemical; conditions: room temperature, LC/MS
Protocol: c) Stability in Suspension and as Solid:
4.7-4.8 g of the test substance are suspended in 200 ml of isopropanol and stirred at room temperature for 7 days. The solid is filtered off and air-dried at room temperature for 3 days. LC/MS (Method 2) is then used to measure whether there has been a degradation of the test substance.

[7] = Stability as solid (90° C., 7 days); assay type: physicochemical; conditions: sealed vial, HPLC
Protocol: To assess the stability of the solids, 20 mg of the solids obtained in this manner are stored in a sealed Head-Space vial at 90° C. in a drying cabinet without vacuum for 7 days. HPLC is then used to measure whether there has been a degradation of the test substance.
HPLC Method for Measuring the Stability of the Solid of Example 63:
HPLC Method for Measuring the Stability of the Solid of Example 44: […]

solubility at 24 h [2]	% test substance after 4 h (F(t = 4 h) × 100/F(t = 0 h)) ([3]; pH 4, 37° C.)	% test substance after 24 h (F(t = 24 h) × 100/F(t = 0 h)) ([3]; pH 4, 37° C.)	% test substance after 4 h (F(t = 4 h) × 100/F(t = 0 h)) ([3]; pH 7.4, 37° C.)	% test substance after 24 h (F(t = 24 h) × 100/F(t = 0 h)) ([3]; pH 7.4, 37° C.)	Degradation of the test substance in suspension [6]	Degradation of the solid [7]	SMILES	Heart rate reduction [1]	Detectability of the administered substance in plasma [4]	Detectability of the administered substance in plasma [5]
650 µg/mL	97%	99%	37%	0%	–	–	C[C@H](NC(=O)[C@@H](N)CCCCN)C(=O)OCCOc1ccc(-c2c(C#N)c(SCc3csc(-c4ccc(Cl)cc4)n3)nc(N3CCCC3)c2C#N)cc1 [Example 41, 2-{4-(2-({(2-(4-Chlorophenyl)-1,3-thiazol-4-ylmethyl}sulfanyl)-3,5-dicyano-6-(pyrrolidin-1-yl)pyridin-4-yl)phenoxy}ethyl L-lysyl-L-alaninatedihydrochloride]	−5%	no longer detectable in plasma even at the first measurement point	no longer detectable in plasma even at the first measurement point
410 µg/mL	99%	99%	78%	26%	no degradation	no degradation	C[C@H](N)C(=O)N[C@@H](C)C(=O)OCCOc1ccc(-c2c(C#N)c(SCc3csc(-c4ccc(Cl)cc4)n3)nc(N3CCCC3)c2C#N)cc1 [Example 44, 2-{4-(2-({(2-(4-Chlorophenyl)-1,3-thiazol-4-yl)methyl}sulfanyl)-3,5-dicyano-6-(pyrrolidin-1-yl)pyridin-4-yl)phenoxy}ethyl L-alanyl-L-alaninate hydrochloride]	−20%	no longer detectable in plasma even at the first measurement point	no longer detectable in plasma even at the first measurement point
–	98%	98%	93%	67%	no degradation	no degradation	CC[C@H](C)[C@H](N)C(=O)N[C@@H](C)C(=O)OCCOc1ccc(-c2c(C#N)c(SCc3csc(-c4ccc(Cl)cc4)n3)nc(N3CCCC3)c2C#N)cc1 [Example 63, 2-{4-(2-({(2-(4-Chlorophenyl)-1,3-thiazol-4-yl)methyl}sulfanyl)-3,5-dicyano-6-(pyrrolidin-1-yl)pyridin-4-yl)phenoxy}ethyl L-isoleucyl-L-alaninate hydrochloride]	−20%	no longer detectable in plasma even at the first measurement point	no longer detectable in plasma even at the first measurement point
